Experimental data as given in patent publication US11708348B2, “Protease inhibitors for treatment of coronavirus infections” (The Scripps Research Institute, priority 2021, dated 2023).
Read-outs that look alike come from different tables or passages of the source.

System: SARS-CoV-2 strain USA-WA1/2020
Experiment: microbe, parasite or virus in culture
Format: cell-based
Conditions: Severe acute respiratory syndrome coronavirus 2, HeLa-ACE2, 24 h, read-out: EC50, uM (Hela)
[1] = HeLa-ACE2 cells, SARS-CoV-2 infection, 24 h, class symbols
[2] = HeLa-ACE2 cells, SARS-CoV-2 infection, 24 h, cells given as a bound

Row | Structure (SMILES) | EC50 [1] [µM] | other results
1 | Cc1cccc(F)c1NC(=O)C(=O)N[C@@H](CC(C)C)C(=O)N[C@@H](C[C@@H]1CCNC1=O)C(=O)COc1c(F)c(F)cc(F)c1F [Compound 82, N1-(2-fluoro-6-methylphenyl)-N2-((S)-4-methyl-1-oxo-1-(((S)-3-oxo-1-((S)-2-oxopyrrolidin-3-yl)-4-(2,3,5,6-tetrafluorophenoxy)butan-2-yl)amino)pentan-2-yl)oxalamide] | < 0.05 | 
2 | Cc1ccc(F)cc1NC(=O)C(=O)N[C@@H](CC(C)C)C(=O)N[C@@H](C[C@@H]1CCNC1=O)C(=O)COc1c(F)c(F)cc(F)c1F [Compound 83, Nl-(5-fluoro-2-methylphenyl)-N2-((S)-4-methyl-1-oxo-1-(((S)-3-oxo-1-((S)-2-oxopyrrolidin-3-yl)-4-(2,3,5,6-tetrafluorophenoxy)butan-2-yl)amino)pentan-2-yl)oxalamide] | < 0.05 | 
3 | CC(C)C[C@H](NC(=O)Nc1ccccc1F)C(=O)N[C@@H](C[C@@H]1CCNC1=O)C(=O)COc1c(F)c(F)cc(F)c1F [Compound 84, (S)-2-(3-(2-fluorophenyl)ureido)-4-methyl-N-((S)-3-oxo-1-((S)-2-oxopyrrolidin-3-yl)-4-(2,3,5,6-tetrafluorophenoxy)butan-2-yl)pentanamide] | 0.05 to 0.2 | 
4 | CC(C)C[C@H](NC(=O)C(=O)Nc1ccccc1C(C)C)C(=O)N[C@@H](C[C@@H]1CCNC1=O)C(=O)COc1c(F)c(F)cc(F)c1F [Compound 86, Nl-(2-isopropylphenyl)-N2-((S)-4-methyl-1-oxo-1-(((S)-3-oxo-1-((S)-2-oxopyrrolidin-3-yl)-4-(2,3,5,6-tetrafluorophenoxy)butan-2-yl)amino)pentan-2-yl)oxalamide] | < 0.05 | 
5 | CC(C)C[C@H](NC(=O)C(=O)Nc1cc(F)c(Br)c(F)c1)C(=O)N[C@@H](C[C@@H]1CCNC1=O)C(=O)COc1c(F)c(F)cc(F)c1F [Compound 87, N1-(4-bromo-3,5-difluorophenyl)-N2-((S)-4-methyl-1-oxo-1-(((S)-3-oxo-1-((S)-2-oxopyrrolidin-3-yl)-4-(2,3,5,6-tetrafluorophenoxy)butan-2-yl)amino)pentan-2-yl)oxalamide] | 0.05 to 0.2 | 
6 | O=C(Nc1ccccc1Cl)C(=O)N[C@@H](CC1CCC(F)(F)CC1)C(=O)N[C@@H](C[C@@H]1CCNC1=O)C(=O)COc1c(F)c(F)cc(F)c1F [Compound 88, N1-(2-chlorophenyl)-N2-((S)-3-(4,4-difluorocyclohexyl)-1-oxo-1-(((S)-3-oxo-l-((S)-2-oxopyrrolidin-3-yl)-4-(2,3,5,6-tetrafluorophenoxy)butan-2-yl)amino)propan-2-yl)oxalamide] | 0.05 to 0.2 | 
7 | Cc1c(F)cccc1NC(=O)C(=O)N[C@@H](CC(C)C)C(=O)N[C@@H](C[C@@H]1CCNC1=O)C(=O)COc1c(F)c(F)cc(F)c1F [Compound 89, N1-(3-fluoro-2-methylphenyl)-N2-((S)-4-methyl-1-oxo-1-(((S)-3-oxo-1-((S)-2-oxopyrrolidin-3-yl)-4-(2,3,5,6-tetrafluorophenoxy)butan-2-yl)amino)pentan-2-yl)oxalamide] | < 0.05 | 
8 | CC(C)[C@H](NC(=O)C(=O)Nc1ccccc1F)C(=O)N[C@@H](C[C@@H]1CCNC1=O)C(=O)COc1c(F)c(F)cc(F)c1F [Compound 90, N1-(2-fluorophenyl)-N2-((S)-3-methyl-1-oxo-1-(((S)-3-oxo-1-((S)-2-oxopyrrolidin-3-yl)-4-(2,3,5,6-tetrafluorophenoxy)butan-2-yl)amino)butan-2-yl)oxalamide] | 0.05 to 0.2 | 
9 | O=C(Nc1ccccc1F)C(=O)N1CCC[C@H]1C(=O)N[C@@H](C[C@@H]1CCNC1=O)C(=O)COc1c(F)c(F)cc(F)c1F [Compound 91, (S)-1-(2-((2-fluorophenyl)amino)-2-oxoacetyl)-N-((S)-3-oxo-1-((S)-2-oxopyrrolidin-3-yl)-4-(2,3,5,6-tetrafluorophenoxy)butan-2-yl)pyrrolidine-2-carboxamide] | 0.5 to 1 | 
10 | O=C(Nc1ccccc1Cl)C(=O)N[C@@H](CC1CCCCC1)C(=O)N[C@@H](C[C@@H]1CCNC1=O)C(=O)COc1c(F)c(F)cc(F)c1F [Compound 92, N1-(2-chlorophenyl)-N2-((S)-3-cyclohexyl-1-oxo-1-(((S)-3-oxo-1-((S)-2-oxopyrrolidin-3-yl)-4-(2,3,5,6-tetrafluorophenoxy)butan-2-yl)amino)propan-2-yl)oxalamide] | < 0.05 | 
11 | Cc1ccccc1NC(=O)C(=O)N[C@@H](CC1CCCCC1)C(=O)N[C@@H](C[C@@H]1CCNC1=O)C(=O)COc1c(F)c(F)cc(F)c1F [Compound 93, N1-((S)-3-cyclohexyl-1-oxo-1-(((S)-3-oxo-1-((S)-2-oxopyrrolidin-3-yl)-4-(2,3,5,6-tetrafluorophenoxy)butan-2-yl)amino)propan-2-yl)-N2-(o-tolyl)oxalamide] | < 0.05 | 
12 | CC(C)C[C@H](NC(=O)C(=O)NC1CCCC(F)(F)C1)C(=O)N[C@@H](C[C@@H]1CCNC1=O)C(=O)COc1c(F)c(F)cc(F)c1F (stereo partly drawn) [Compound 94, Nl-(3,3-difluorocyclohexyl)-N2-((S)-4-methyl-1-oxo-1-(((S)-3-oxo-1-((S)-2-oxopyrrolidin-3-yl)-4-(2,3,5,6-tetrafluorophenoxy)butan-2-yl)amino)pentan-2-yl)oxalamide] | 0.05 to 0.2 | 
13 | O=C(Nc1ccccc1F)C(=O)N1CCC[C@@H](C(=O)N[C@@H](C[C@@H]2CCNC2=O)C(=O)COc2c(F)c(F)cc(F)c2F)C1 [Compound 95, (R)-1-(2-((2-fluorophenyl)amino)-2-oxoacetyl)-N-((S)-3-oxo-1-((S)-2-oxopyrrolidin-3-yl)-4-(2,3,5,6-tetrafluorophenoxy)butan-2-yl)piperidine-3-carboxamide] |  | EC50 [2]: > 1 µM
14 | CC(C)C[C@H](NC(=O)C(=O)Nc1ccc(Br)cc1F)C(=O)N[C@@H](C[C@@H]1CCNC1=O)C(=O)COc1c(F)c(F)cc(F)c1F [Compound 96, N1-(4-bromo-2-fluorophenyl)-N2-((S)-4-methyl-1-oxo-1-(((S)-3-oxo-1-((S)-2-oxopyrrolidin-3-yl)-4-(2,3,5,6-tetrafluorophenoxy)butan-2-yl)amino)pentan-2-yl)oxalamide] |  | EC50: 0.05 to 0.2 µM
15 | CC(C)C[C@H](NC(=O)C(Nc1ccccc1F)C(F)(F)F)C(=O)N[C@@H](C[C@@H]1CCNC1=O)C(=O)COc1c(F)c(F)cc(F)c1F (stereo partly drawn) [Compound 97, (2S)-4-methyl-N-((S)-3-oxo-1-((S)-2-oxopyrrolidin-3-yl)-4-(2,3,5,6-tetrafluorophenoxy)butan-2-yl)-2-(3,3,3-trifluoro-2-((2-fluorophenyl)-amino)propanamido)-pentanamide] | 0.2 to 0.5 | 
16 | CC(C)C[C@H](NC(=O)C(=O)NC1CC1)C(=O)N[C@@H](C[C@@H]1CCNC1=O)C(=O)COc1c(F)c(F)cc(F)c1F [Compound 98, N1-cyclopropyl-N2-((S)-4-methyl-1-oxo-1-(((S)-3-oxo-1-((S)-2-oxopyrrolidin-3-yl)-4-(2,3,5,6-tetrafluorophenoxy)butan-2-yl)amino)pentan-2-yl)oxalamide] | 0.05 to 0.2 | 
17 | CC(C)C[C@H](NC(=O)C(=O)NC1(C)CC1)C(=O)N[C@@H](C[C@@H]1CCNC1=O)C(=O)COc1c(F)c(F)cc(F)c1F [Compound 99, N1-((S)-4-methyl-1-oxo-1-(((S)-3-oxo-1-((S)-2-oxopyrrolidin-3-yl)-4-(2,3,5,6-tetrafluorophenoxy)butan-2-yl)amino)pentan-2-yl)-N2-(1-methyl-cyclopropyl)oxalamide] | 0.05 to 0.2 | 
18 | CC(C)C[C@H](NC(=O)C(=O)NC(C)(C)C)C(=O)N[C@@H](C[C@@H]1CCNC1=O)C(=O)COc1c(F)c(F)cc(F)c1F [Compound 100, N1-(tert-butyl)-N2-((S)-4-methyl-1-oxo-1-(((S)-3-oxo-1-((S)-2-oxopyrrolidin-3-yl)-4-(2,3,5,6-tetrafluorophenoxy)butan-2-yl)amino)pentan-2-yl)oxalamide] | 0.05 to 0.2 | 
19 | CC(C)C[C@H](NC(=O)C(=O)NC1CCOCC1)C(=O)N[C@@H](C[C@@H]1CCNC1=O)C(=O)COc1c(F)c(F)cc(F)c1F [Compound 101, N1-((S)-4-methyl-1-oxo-1-(((S)-3-oxo-1-((S)-2-oxopyrrolidin-3-yl)-4-(2,3,5,6-tetrafluorophenoxy)butan-2-yl)amino)pentan-2-yl)-N2-(tetrahydro-2H-pyran-4-yl)oxalamide] | 0.05 to 0.2 | 
20 | CC(C)C[C@H](NC(=O)C(=O)NC1CCCC1)C(=O)N[C@@H](C[C@@H]1CCNC1=O)C(=O)COc1c(F)c(F)cc(F)c1F [Compound 102, N1-cyclopentyl-N2-((S)-4-methyl-1-oxo-1-(((S)-3-oxo-1-((S)-2-oxopyrrolidin-3-yl)-4-(2,3,5,6-tetrafluorophenoxy)butan-2-yl)amino)pentan-2-yl)oxalamide] | 0.05 to 0.2 | 
21 | CC(C)C[C@H](NC(=O)C(=O)N[C@H]1CCCOC1)C(=O)N[C@@H](C[C@@H]1CCNC1=O)C(=O)COc1c(F)c(F)cc(F)c1F [Compound 103, N1-((S)-4-methyl-1-oxo-1-(((S)-3-oxo-1-((S)-2-oxopyrrolidin-3-yl)-4-(2,3,5,6-tetrafluorophenoxy)butan-2-yl)amino)pentan-2-yl)-N2-((S)-tetrahydro-2H-pyran-3-yl)oxalamide] | 0.05 to 0.2 | 
22 | CC(=O)N1CCN(C(=O)C(=O)N[C@@H](CC(C)C)C(=O)N[C@@H](C[C@@H]2CCNC2=O)C(=O)COc2c(F)c(F)cc(F)c2F)CC1 [Compound 104, (S)-2-(2-(4-acetylpiperazin-1-yl)-2-oxoacetamido)-4-methyl-N-((S)-3-oxo-1-((S)-2-oxopyrrolidin-3-yl)-4-(2,3,5,6-tetrafluorophenoxy)butan-2-yl)pentanamide] |  | EC50 [2]: > 1 µM
23 | Cc1ccccc1NC(=O)C(=O)N(C)[C@@H](CC(C)C)C(=O)N[C@@H](C[C@@H]1CCNC1=O)C(=O)COc1c(F)c(F)cc(F)c1F [Compound 105, N1-methyl-N1-((S)-4-methyl-1-oxo-1-(((S)-3-oxo-1-((S)-2-oxopyrrolidin-3-yl)-4-(2,3,5,6-tetrafluorophenoxy)butan-2-yl)amino)pentan-2-yl)-N2-(o-tolyl)oxalamide] |  | EC50 [2]: > 1 µM
